Data taken from patent US20140227335A1 (priority 2012, published 2014).

Experiments:
HIV-20DC310342 = experiment: HIV-2 infectivity assay in TZM-bl cells; format: cell-based; conditions: Human immunodeficiency virus 2, TZM-bl
HIV-1 RU132 = experiment: HIV infectivity assay in TZM-bl cells; format: cell-based; conditions: RU132 (clade G, R5); for IC50: Human immunodeficiency virus 1, TZM-bl
HIV-1 96USNG31 = experiment: Anti-HIV efficacy in fresh human PBMC (reverse transcriptase activity); format: cell-based; conditions: Human immunodeficiency virus 1, PBMC, 168 h; 96USNG31 (clade C, X4/R5); PBMCs, MOI = 0.1, 7 days
[1] = system: freshly activated human PBMC; experiment: Compound cytotoxicity in uninfected PBMC (MTS assay); conditions: freshly activated PBMCs, uninfected plates, MTS assay, 7 days
[2] = as above; conditions: human
HIV-1 92TH599 = experiment: HIV infectivity assay in TZM-bl cells; format: cell-based; conditions: 92TH599 (clade B, X4); for IC50: Human immunodeficiency virus 1, TZM-bl
[3] = system: Dengue virus (DenV), serotype 2 New Guinea C strain; experiment: Dengue virus plaque assay on Vero cells; format: cell-based; conditions: 300 μM PD
HIV-1 92TH026 = experiment: HIV infectivity assay in TZM-bl cells; format: cell-based; conditions: 92TH026 (clade B, R5); for IC50: Human immunodeficiency virus 1, TZM-bl
HIV-1 92UG029 = experiment: Anti-HIV efficacy in fresh human PBMC (reverse transcriptase activity); format: cell-based; conditions: Human immunodeficiency virus 1, PBMC, 168 h; 92UG029 (clade A, X4); PBMCs, MOI = 0.1, 7 days
[4] = Cytotoxicity on human cell lines (Cell Titer-Glo); format: cell-based
HIV-1 92HT599 = experiment: Anti-HIV efficacy in fresh human PBMC (reverse transcriptase activity); format: cell-based; conditions: Human immunodeficiency virus 1, PBMC, 168 h; 92HT599 (clade B, X4); PBMCs, MOI = 0.1, 7 days
HIV-1 92UG024 = experiment: HIV infectivity assay in TZM-bl cells; format: cell-based; conditions: 92UG024 (clade D, X4); for IC50: Human immunodeficiency virus 1, TZM-bl

Question: With `N=C1Sc2ccccc2C2=NCCCN12` [PD, PD 404,182] as the molecule, how does the IC50 (HIV-20DC310342) read?
Answer: The IC50 was 1800 nM.

Question: What about the IC50 (HIV-1 RU132; PD in DMEM + 10% FBS) of the same molecule?
Answer: Its IC50 is 700 nM.

Question: And the IC50 (HIV-1 RU132; PD in cervical fluids)?
Answer: The IC50 was 900 nM.

Question: And the IC50 (HIV-1 RU132; PD in seminal plasma)?
Answer: Its IC50 is 740 nM.

Question: What about the IC90 (HIV-1 RU132; PD in DMEM + 10% FBS) of the same molecule?
Answer: The IC90 was 3.1 ± 0.2 µM.

Question: And the IC90 (HIV-1 RU132; PD in cervical fluids)?
Answer: The IC90 was 3.9 ± 0.5 µM.

Question: What about the IC90 (HIV-1 RU132; PD in seminal plasma) of the same molecule?
Answer: The IC90 was 3.28 ± 0.22 µM.

Question: And the IC50 (HIV-1 96USNG31)?
Answer: The IC50 was 140 nM.

Question: And the IC90 (HIV-1 96USNG31)?
Answer: The IC90 was 1620 nM.

Question: What about the CC50 [1] of the same molecule?
Answer: Its CC50 is over 200 µM.

Question: And the cytotoxicity at 7 days, 200 μM [2]?
Answer: The cytotoxicity at 7 days, 200 μM was 48%.

Question: And the CC50 at 7 days ([2]; CC50, freshly activated PBMCs, uninfected plates, MTS assay, 7 days)?
Answer: Its CC50 at 7 days is about 200 µM.

Question: And the “IC50 (DMEM; IC90 per footnote)” value (HIV-1 92TH599; PD in DMEM + 10% FBS)?
Answer: The value was 5.9 ± 0.3 µM.

Question: And the “IC50 (Cervical Fluid; IC90 per footnote)” value (HIV-1 92TH599; PD in cervical fluids)?
Answer: The value was 6.4 ± 0.5 µM.

Question: What about the “IC50 (Seminal Plasma; IC90 per footnote)” value (HIV-1 92TH599; PD in seminal plasma) of the same molecule?
Answer: Its value is 6.31 ± 0.52 µM.

Question: What about the IC50 (HIV-1 92TH599; PD in DMEM + 10% FBS) of the same molecule?
Answer: Its IC50 is 1800 nM.

Question: What about the IC50 (HIV-1 92TH599; PD in cervical fluids) of the same molecule?
Answer: Its IC50 is 2200 nM.

Question: What about the IC50 (HIV-1 92TH599; PD in seminal plasma) of the same molecule?
Answer: The IC50 was 1930 nM.

Question: What about the “effect on infectivity of DenV” value [3] of the same molecule?
Answer: Its value is “no significant inhibitory effect”.

Question: And the IC90 (HIV-1 92TH026; PD in DMEM + 10% FBS)?
Answer: The IC90 was 2.8 ± 0.2 µM.

Question: What about the IC90 (HIV-1 92TH026; PD in cervical fluids) of the same molecule?
Answer: The IC90 was 3.3 ± 0.1 µM.

Question: And the IC90 (HIV-1 92TH026; PD in seminal plasma)?
Answer: The IC90 was 2.95 ± 0.16 µM.

Question: And the IC50 (HIV-1 92TH026; PD in DMEM + 10% FBS)?
Answer: Its IC50 is 350 nM.

Question: And the IC50 (HIV-1 92TH026; PD in cervical fluids)?
Answer: The IC50 was 610 nM.

Question: What about the IC50 (HIV-1 92TH026; PD in seminal plasma) of the same molecule?
Answer: Its IC50 is 430 nM.

Question: And the IC50 (HIV-1 92UG029)?
Answer: The IC50 was 1180 nM.

Question: What about the IC90 (HIV-1 92UG029) of the same molecule?
Answer: The IC90 was 4.67 µM.

Question: And the CC50 ([4]; HepG2, HCT-8, Huh-7, Huh-7.5, TZM, PC3 and 293T cells, seven different human cell lines)?
Answer: Its CC50 is over 300 µM.

Question: And the CC50 ([4]; human, TZM-bl (HeLa) cervical cancer cells)?
Answer: The CC50 was over 300 µM.

Question: And the IC50 (HIV-1 92HT599)?
Answer: Its IC50 is 550 nM.

Question: What about the IC90 (HIV-1 92HT599) of the same molecule?
Answer: Its IC90 is 1920 nM.

Question: What about the “IC50 (DMEM; IC90 per footnote)” value (HIV-1 92UG024; PD in DMEM + 10% FBS) of the same molecule?
Answer: The value was 1.4 ± 0.2 µM.

Question: And the “IC50 (Cervical Fluid; IC90 per footnote)” value (HIV-1 92UG024; PD in cervical fluids)?
Answer: The value was 1.8 ± 0.2 µM.

Question: And the “IC50 (Seminal Plasma; IC90 per footnote)” value (HIV-1 92UG024; PD in seminal plasma)?
Answer: The value was 1.58 ± 0.2 µM.

Question: What about the IC50 (HIV-1 92UG024; PD in DMEM + 10% FBS) of the same molecule?
Answer: Its IC50 is 3330 nM.

Question: And the IC50 (HIV-1 92UG024; PD in cervical fluids)?
Answer: The IC50 was 550 nM.

Question: What about the IC50 (HIV-1 92UG024; PD in seminal plasma) of the same molecule?
Answer: The IC50 was 420 nM.
